{"source": "PubChem BioAssay (NCI)", "experiment_in_all_cases": "DTP human tumour cell line panel, 48 h", "key": {"[1]": {"system": "OVCAR-8 ovarian"}, "[2]": {"system": "SK-OV-3 ovarian"}, "[3]": {"system": "OVCAR-4 ovarian"}, "[4]": {"system": "UACC-62 melanoma"}, "[5]": {"system": "SK-MEL-5 melanoma"}, "[6]": {"system": "786-0 renal"}, "[7]": {"system": "SN12C renal"}, "[8]": {"system": "SNB-78 CNS"}, "[9]": {"system": "KM12 colon"}, "[10]": {"system": "UO-31 renal"}, "[11]": {"system": "SF-539 CNS"}, "[12]": {"system": "CCRF-CEM leukemia"}, "[13]": {"system": "NCI-H522 lung"}, "[14]": {"system": "SK-MEL-28 melanoma"}, "[15]": {"system": "U251 CNS"}, "[16]": {"system": "DMS 273 small cell lung"}, "[17]": {"system": "RPMI-8226 leukemia"}, "[18]": {"system": "OVCAR-5 ovarian"}, "[19]": {"system": "NCI-H23 lung"}, "[20]": {"system": "NCI-H226 lung"}, "[21]": {"system": "A549 NSCLC"}, "[22]": {"system": "LOX IMVI melanoma"}, "[23]": {"system": "MOLT-4 leukemia"}, "[24]": {"system": "SF-295 CNS"}, "[25]": {"system": "EKVX NSCLC"}, "[26]": {"system": "DMS 114 small cell lung"}, "[27]": {"system": "IGROV1 ovarian"}, "[28]": {"system": "K-562 leukemia"}, "[29]": {"system": "A498 renal"}, "[30]": {"system": "HCC-2998 colon"}, "[31]": {"system": "M19-MEL melanoma"}, "[32]": {"system": "COLO 205 colon"}, "[33]": {"system": "OVCAR-3 ovarian"}, "[34]": {"system": "HCT-15 colon"}, "[35]": {"system": "SNB-75 CNS"}, "[36]": {"system": "XF 498 CNS"}, "[37]": {"system": "TK-10 renal"}, "[38]": {"system": "SK-MEL-2 melanoma"}, "[39]": {"system": "UACC-257 melanoma"}, "[40]": {"system": "HOP-62 NSCLC"}, "[41]": {"system": "M14 melanoma"}, "[42]": {"system": "HCT-116 colon"}, "[43]": {"system": "HL-60(TB) leukemia"}, "[44]": {"system": "MALME-3M melanoma"}, "[45]": {"system": "KM20L2 colon"}, "[46]": {"system": "NCI-H460 lung"}, "[47]": {"system": "SW-620 colon"}, "[48]": {"system": "DLD-1 colon"}, "[49]": {"system": "LXFL 529 NSCLC"}, "[50]": {"system": "SF-268 CNS"}, "[51]": {"system": "CAKI-1 renal"}, "[52]": {"system": "SNB-19 CNS"}, "[53]": {"system": "HOP-92 NSCLC"}, "[54]": {"system": "HT29 colon"}, "[55]": {"system": "ACHN renal"}, "[56]": {"system": "HOP-18 NSCLC"}}, "note": "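How tested: cells in 96-well plates exposed to compound for 48 hours at five concentrations. At the TGI there is no net growth.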", "data": [{"smiles": "Nc1ccc(C(=O)NN2C(=O)C(Cl)C2c2cccc([N+](=O)[O-])c2)cc1", "note": "(configuration not stated)", "values": [{"measurement": "TGI", "setting": "[1]", "value": 39.3, "unit": "µM"}, {"measurement": "TGI", "setting": "[2]", "value": 33.3, "unit": "µM"}, {"measurement": "TGI", "setting": "[3]", "value": 33.4, "unit": "µM"}, {"measurement": "TGI", "setting": "[4]", "value": 37.1, "unit": "µM"}, {"measurement": "TGI", "setting": "[5]", "value": 34.3, "unit": "µM"}, {"measurement": "TGI", "setting": "[6]", "value": 33.1, "unit": "µM"}, {"measurement": "TGI", "setting": "[7]", "value": 36.9, "unit": "µM"}, {"measurement": "TGI", "setting": "[8]", "value": "> 100", "unit": "µM"}, {"measurement": "TGI", "setting": "[9]", "value": 30.6, "unit": "µM"}, {"measurement": "TGI", "setting": "[10]", "value": 31.3, "unit": "µM"}, {"measurement": "TGI", "setting": "[11]", "value": 35.1, "unit": "µM"}, {"measurement": "TGI", "setting": "[12]", "value": 30.4, "unit": "µM"}, {"measurement": "TGI", "setting": "[13]", "value": 25.1, "unit": "µM"}, {"measurement": "TGI", "setting": "[14]", "value": 38.5, "unit": "µM"}, {"measurement": "TGI", "setting": "[15]", "value": 27.3, "unit": "µM"}, {"measurement": "TGI", "setting": "[16]", "value": 32.5, "unit": "µM"}, {"measurement": "TGI", "setting": "[17]", "value": 71.2, "unit": "µM"}, {"measurement": "TGI", "setting": "[18]", "value": 37.7, "unit": "µM"}, {"measurement": "TGI", "setting": "[19]", "value": 34.5, "unit": "µM"}, {"measurement": "TGI", "setting": "[20]", "value": 36.8, "unit": "µM"}, {"measurement": "TGI", "setting": "[21]", "value": "> 100", "unit": "µM"}, {"measurement": "TGI", "setting": "[22]", "value": 25.1, "unit": "µM"}, {"measurement": "TGI", "setting": "[23]", "value": 37.5, "unit": "µM"}, {"measurement": "TGI", "setting": "[24]", "value": 43.1, "unit": "µM"}, {"measurement": "TGI", "setting": "[25]", "value": 47.7, "unit": "µM"}, {"measurement": "TGI", "setting": "[26]", "value": 36.5, "unit": "µM"}, {"measurement": "TGI", "setting": "[27]", "value": 30.8, "unit": "µM"}, {"measurement": "TGI", "setting": "[28]", "value": 47.5, "unit": "µM"}, {"measurement": "TGI", "setting": "[29]", "value": 45.4, "unit": "µM"}, {"measurement": "TGI", "setting": "[30]", "value": 39.5, "unit": "µM"}, {"measurement": "TGI", "setting": "[31]", "value": 34.1, "unit": "µM"}, {"measurement": "TGI", "setting": "[32]", "value": 35, "unit": "µM"}, {"measurement": "TGI", "setting": "[33]", "value": 41.8, "unit": "µM"}, {"measurement": "TGI", "setting": "[34]", "value": 45.7, "unit": "µM"}, {"measurement": "TGI", "setting": "[35]", "value": 35.6, "unit": "µM"}, {"measurement": "TGI", "setting": "[36]", "value": 26.5, "unit": "µM"}, {"measurement": "TGI", "setting": "[37]", "value": 35.3, "unit": "µM"}, {"measurement": "TGI", "setting": "[38]", "value": 35.7, "unit": "µM"}, {"measurement": "TGI", "setting": "[39]", "value": 51, "unit": "µM"}, {"measurement": "TGI", "setting": "[40]", "value": 41.6, "unit": "µM"}, {"measurement": "TGI", "setting": "[41]", "value": 39.6, "unit": "µM"}, {"measurement": "TGI", "setting": "[42]", "value": 34.2, "unit": "µM"}, {"measurement": "TGI", "setting": "[43]", "value": 41.4, "unit": "µM"}, {"measurement": "TGI", "setting": "[44]", "value": 35.6, "unit": "µM"}, {"measurement": "TGI", "setting": "[45]", "value": 43.6, "unit": "µM"}, {"measurement": "TGI", "setting": "[46]", "value": "> 100", "unit": "µM"}, {"measurement": "TGI", "setting": "[47]", "value": 40, "unit": "µM"}, {"measurement": "TGI", "setting": "[48]", "value": 34.7, "unit": "µM"}, {"measurement": "TGI", "setting": "[49]", "value": 34.9, "unit": "µM"}, {"measurement": "TGI", "setting": "[50]", "value": 38.6, "unit": "µM"}, {"measurement": "TGI", "setting": "[51]", "value": 36, "unit": "µM"}, {"measurement": "TGI", "setting": "[52]", "value": 32.1, "unit": "µM"}, {"measurement": "TGI", "setting": "[53]", "value": 40.7, "unit": "µM"}, {"measurement": "TGI", "setting": "[54]", "value": 37.9, "unit": "µM"}, {"measurement": "TGI", "setting": "[55]", "value": 50.9, "unit": "µM"}]}, {"smiles": "O=c1[nH]c2c(O)cccc2c2cc3c(c(O)c12)OCO3", "values": [{"measurement": "TGI", "setting": "[1]", "value": "> 100", "unit": "µM"}, {"measurement": "TGI", "setting": "[2]", "value": 84.7, "unit": "µM"}, {"measurement": "TGI", "setting": "[3]", "value": 43.6, "unit": "µM"}, {"measurement": "TGI", "setting": "[4]", "value": 71.3, "unit": "µM"}, {"measurement": "TGI", "setting": "[5]", "value": "> 100", "unit": "µM"}, {"measurement": "TGI", "setting": "[6]", "value": "> 100", "unit": "µM"}, {"measurement": "TGI", "setting": "[7]", "value": 92.3, "unit": "µM"}, {"measurement": "TGI", "setting": "[8]", "value": 80.4, "unit": "µM"}, {"measurement": "TGI", "setting": "[9]", "value": 41.2, "unit": "µM"}, {"measurement": "TGI", "setting": "[10]", "value": 54.1, "unit": "µM"}, {"measurement": "TGI", "setting": "[11]", "value": 54.4, "unit": "µM"}, {"measurement": "TGI", "setting": "[12]", "value": 64.3, "unit": "µM"}, {"measurement": "TGI", "setting": "[13]", "value": 63.4, "unit": "µM"}, {"measurement": "TGI", "setting": "[56]", "value": 0.877, "unit": "µM"}, {"measurement": "TGI", "setting": "[15]", "value": 63.4, "unit": "µM"}, {"measurement": "TGI", "setting": "[16]", "value": 59.3, "unit": "µM"}, {"measurement": "TGI", "setting": "[17]", "value": 92, "unit": "µM"}, {"measurement": "TGI", "setting": "[20]", "value": 55, "unit": "µM"}, {"measurement": "TGI", "setting": "[21]", "value": "> 100", "unit": "µM"}, {"measurement": "TGI", "setting": "[22]", "value": 38.9, "unit": "µM"}, {"measurement": "TGI", "setting": "[23]", "value": "> 100", "unit": "µM"}, {"measurement": "TGI", "setting": "[24]", "value": 44.8, "unit": "µM"}, {"measurement": "TGI", "setting": "[25]", "value": 77.4, "unit": "µM"}, {"measurement": "TGI", "setting": "[26]", "value": 75.8, "unit": "µM"}, {"measurement": "TGI", "setting": "[27]", "value": "> 100", "unit": "µM"}, {"measurement": "TGI", "setting": "[28]", "value": "> 100", "unit": "µM"}, {"measurement": "TGI", "setting": "[29]", "value": 56.5, "unit": "µM"}, {"measurement": "TGI", "setting": "[30]", "value": 56.1, "unit": "µM"}, {"measurement": "TGI", "setting": "[31]", "value": 93.5, "unit": "µM"}, {"measurement": "TGI", "setting": "[32]", "value": 34.5, "unit": "µM"}, {"measurement": "TGI", "setting": "[33]", "value": 45.2, "unit": "µM"}, {"measurement": "TGI", "setting": "[34]", "value": "> 100", "unit": "µM"}, {"measurement": "TGI", "setting": "[35]", "value": "> 100", "unit": "µM"}, {"measurement": "TGI", "setting": "[36]", "value": 56, "unit": "µM"}, {"measurement": "TGI", "setting": "[37]", "value": "> 100", "unit": "µM"}, {"measurement": "TGI", "setting": "[39]", "value": 47.6, "unit": "µM"}, {"measurement": "TGI", "setting": "[40]", "value": 61.8, "unit": "µM"}, {"measurement": "TGI", "setting": "[41]", "value": 52.4, "unit": "µM"}, {"measurement": "TGI", "setting": "[42]", "value": 54.1, "unit": "µM"}, {"measurement": "TGI", "setting": "[43]", "value": 31.1, "unit": "µM"}, {"measurement": "TGI", "setting": "[44]", "value": 56.4, "unit": "µM"}, {"measurement": "TGI", "setting": "[45]", "value": 40.4, "unit": "µM"}, {"measurement": "TGI", "setting": "[46]", "value": 36.6, "unit": "µM"}, {"measurement": "TGI", "setting": "[47]", "value": "> 100", "unit": "µM"}, {"measurement": "TGI", "setting": "[48]", "value": 62.4, "unit": "µM"}, {"measurement": "TGI", "setting": "[49]", "value": 73.1, "unit": "µM"}, {"measurement": "TGI", "setting": "[50]", "value": 94.2, "unit": "µM"}, {"measurement": "TGI", "setting": "[51]", "value": 40.8, "unit": "µM"}, {"measurement": "TGI", "setting": "[52]", "value": 70.5, "unit": "µM"}, {"measurement": "TGI", "setting": "[53]", "value": 63.9, "unit": "µM"}, {"measurement": "TGI", "setting": "[54]", "value": 50.6, "unit": "µM"}, {"measurement": "TGI", "setting": "[55]", "value": 49.4, "unit": "µM"}]}]}
